We go through 54 molecules from patent US9902739B2, “Small molecule inhibitors of G protein coupled receptor 6 kinases polypeptides” (Mayo Foundation for Medical Education and Research, priority 2014, dated 2018).

For one test, the target named is T1, GRK6, recombinant full-length GST-tagged human protein (Homo sapiens, UniProt P43250).
T1 construct: Enzyme: 20 nM GRK6, recombinant full-length GST-tagged human protein; GST
T1 sequence (P43250 whole entry): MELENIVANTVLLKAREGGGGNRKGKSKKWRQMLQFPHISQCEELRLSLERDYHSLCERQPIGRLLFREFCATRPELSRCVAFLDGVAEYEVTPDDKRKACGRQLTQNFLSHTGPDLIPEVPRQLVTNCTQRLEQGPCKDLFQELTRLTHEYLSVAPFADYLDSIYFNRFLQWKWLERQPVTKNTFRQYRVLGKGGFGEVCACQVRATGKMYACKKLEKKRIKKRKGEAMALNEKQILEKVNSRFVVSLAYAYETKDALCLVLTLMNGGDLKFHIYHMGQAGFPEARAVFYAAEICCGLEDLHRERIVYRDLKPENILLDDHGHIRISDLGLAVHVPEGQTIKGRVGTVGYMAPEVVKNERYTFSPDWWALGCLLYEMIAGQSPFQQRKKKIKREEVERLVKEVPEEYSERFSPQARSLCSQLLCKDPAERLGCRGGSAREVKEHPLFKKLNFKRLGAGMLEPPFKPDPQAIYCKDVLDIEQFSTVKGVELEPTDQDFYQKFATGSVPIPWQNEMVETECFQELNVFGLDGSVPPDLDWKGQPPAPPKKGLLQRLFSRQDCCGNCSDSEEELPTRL
The test can be described thus: GRK6 assay, IC50 determination (8-point concentration-response). It counts as biochemical. As to conditions: Series 1 (Table 11); 20 nM GRK6, ATP 12 μM (Km), Peptide 216 1 μM, incubation 7 h. The protocol: The following assay conditions were used.
Buffer: 50 mM TRIS-HCl, pH 7.5, 5 mM MgCl2, 2 mM DTT, 0.01% Triton X-100, 10 μM Na3VO4, 10 μM b-GP, 1% DMSO
Enzyme: 20 nM GRK6, recombinant full-length GST-tagged human protein
Peptide substrate (Peptide 216): 1 μM
One hundred two compounds (1-1-1-102) were further characterized by determining IC50 values in a GRK6 assay. This screen has been previously described in WO 2013/063458, which is incorporated by reference in its entirety herein. Briefly, the following activities were performed: 8-point concentration-response determinations in singlicate wells (top concentration=60 μM, 3-fold dilution steps); Repeat tests for QC failed or inconclusive compounds; and Repeat tests (titrate down) for compounds with >50% inhibition at all tested concentrations.
Twelve compounds (2-1-2-12) were further characterized by determining the IC50 values in a GRK6 assay. This screen has been previously described in WO 2013/063458, which is incorporated by reference in its entirety herein. Specific activities were performed as described above (Example 18).
Thirty-six compounds (3-1-3-36) were further characterized by determining the IC50 values in a GRK6 assay. This screen has been previously described in WO 2013/063458, which is incorporated by reference in its entirety herein. Specific activities were performed as described above (Example 18).
Fifty-four compounds (4-1-4-54) were further characterized by determining the IC50 values in a GRK6 assay. This screen has been previously described in WO 2013/063458, which is incorporated by reference in its entirety herein. Specific activities were performed as described above (Example 18).
For the molecule `C#Cc1ccc(-c2nnc(SCC(=O)O)[nH]2)o1` [Compound 1-93], the 50% inhibitory concentration (IC50) was found to be 2300 nM.

For the molecule `O=C(O)CSc1nnc(-c2ccc(-c3ccccc3C(F)(F)F)o2)[nH]1` [Compound 1-94], the half-maximal inhibitory concentration (IC50) amounted to 3100 nM.

As to `O=C(O)CSc1nnc(-c2ccc(-c3ccccc3[N+](=O)[O-])o2)[nH]1` [Compound 1-95], the half-maximal inhibitory concentration (IC50) worked out at 3180 nM.

On to `Cc1nn(C)cc1-c1ccc(-c2nnc(SCC(=O)O)[nH]2)o1` [Compound 1-96], for which the IC50 worked out at 3310 nM.

Regarding `O=C(O)CSc1nnc(-c2ccc(Br)o2)[nH]1` [Compound 1-97], the IC50 was determined as 3330 nM.

With `Cn1cc(-c2ccc(-c3nnc(SCC(=O)O)[nH]3)o2)cn1` [Compound 1-98], the IC50 is 3680 nM.

In the case of `Cc1n[nH]c(C)c1-c1ccc(-c2nnc(SCC(=O)O)[nH]2)o1` [Compound 1-99], the half-maximal inhibitory concentration (IC50) was 4370 nM.

Turning to `O=C(O)CSc1nnc(-c2ccc(-c3cnn(CCN4CCOCC4)c3)o2)[nH]1` [Compound 1-100], the IC50 came to 6200 nM.

Regarding `O=C(O)CSc1nnc(-c2ccc(C(c3ccccc3)c3ccccc3)o2)[nH]1` [Compound 1-101], the IC50 came to 6710 nM.

As for `COC(=O)CSc1nnc(-c2ccc(C#Cc3ccc4ccccc4c3)o2)[nH]1` [Compound 1-102], the IC50 came to 8250 nM.

The same test, now with this note: Series 2 (Table 12); conditions as Example 18.
Turning to `COc1cc(Cl)cc(-c2ccc(-c3cc(SCC(=O)O)n[nH]3)o2)c1` [Compound 2-1], the IC50 stood at 309 nM.

For the molecule `O=C(O)CSc1cc(-c2ccc(-c3ccc(Cl)c(Cl)c3)s2)[nH]n1` [Compound 2-2], the IC50 is 402 nM.

Regarding `O=C(O)CSc1cc(-c2ccc(-c3ccc(Cl)c(Cl)c3)o2)[nH]n1` [Compound 2-3], the IC50 is 475 nM.

For `COc1cc(Cl)cc(-c2ccc(-c3cc(SCC(=O)O)n[nH]3)s2)c1` [Compound 2-4], the IC50 worked out at 608 nM.

On to `COc1ccc2cc(C#Cc3ccc(-c4cc(SCC(=O)O)n[nH]4)o3)ccc2c1` [Compound 2-5], for which the IC50 came out at 626 nM.

In the case of `COc1ccc2cc(-c3ccc(-c4cc(SCC(=O)O)n[nH]4)s3)ccc2c1` [Compound 2-6], the IC50 came to 721 nM.

`O=C(O)CSc1cc(-c2ccc(-c3ccc4ccccc4c3)s2)[nH]n1` [Compound 2-7]: the concentration for half-maximal inhibition (IC50) came to 788 nM.

For `Cn1c2ccccc2c2ccc(-c3ccc(-c4cc(SCC(=O)O)n[nH]4)o3)cc21` [Compound 2-8], the IC50 was 1250 nM.

As to `O=C(O)CSc1cc(-c2ccc(-c3ccc4c(c3)[nH]c3ccccc34)o2)[nH]n1` [Compound 2-9], the IC50 was 1290 nM.

Take `COc1ccc2cc(-c3cc(SCC(=O)O)n[nH]3)ccc2c1` [Compound 2-10]: the IC50 was 1470 nM.

With `O=C(O)CSc1cc(-c2ccc(Br)o2)[nH]n1` [Compound 2-11], the IC50 was 5440 nM.

For `O=C(O)CSc1cc(-c2ccccc2)[nH]n1` [Compound 2-12, 2-[(5-phenyl-1H-pyrazol-3-yl)sulfanyl]acetic acid], the IC50 is 18300 nM.

The same test, now with this note: Series 3 (Table 13); conditions as Example 18.
As for `c1ccc2cc(-c3ccc(-c4nnc(SCc5nnn[nH]5)[nH]4)o3)ccc2c1` [Compound 3-1], the IC50 was determined as 442 nM.

Regarding `Clc1cc(Cl)cc(-c2ccc(-c3nnc(SCc4nnn[nH]4)[nH]3)o2)c1` [Compound 3-2], the IC50 was found to be 545 nM.

Turning to `c1cnc2ccc(-c3ccc(-c4nnc(SCc5nnn[nH]5)[nH]4)o3)cc2c1` [Compound 3-3], the IC50 came out at 667 nM.

In the case of `FC(F)(F)c1cc(-c2ccc(-c3nnc(SCc4nnn[nH]4)[nH]3)o2)cc2cccnc12` [Compound 3-4], the IC50 is 881 nM.

For the molecule `c1ccc(-c2cccc(-c3ccc(-c4nnc(SCc5nnn[nH]5)[nH]4)o3)c2)cc1` [Compound 3-5], the IC50 worked out at 900 nM.

Turning to `c1ccc2ncc(-c3ccc(-c4nnc(SCc5nnn[nH]5)[nH]4)o3)cc2c1` [Compound 3-6], the IC50 was 1100 nM.

As to `COc1cc(Cl)cc(-c2cc(-c3nnc(SCc4nnn[nH]4)[nH]3)cc([N+](=O)[O-])c2)c1` [Compound 3-7], the IC50 was 1210 nM.

As for `c1cc2cc(-c3ccc(-c4nnc(SCc5nnn[nH]5)[nH]4)o3)ccc2[nH]1` [Compound 3-8], the IC50 was determined as 1270 nM.

For `COc1ccc(C(F)(F)F)cc1-c1ccc(-c2nnc(SCc3nnn[nH]3)[nH]2)o1` [Compound 3-9], the IC50 worked out at 1280 nM.

On to `O=c1[nH]c2ccc(-c3ccc(-c4nnc(SCc5nnn[nH]5)[nH]4)o3)cc2[nH]1` [Compound 3-10], for which the IC50 stood at 1510 nM.

Regarding `COc1ccc2cc(-c3ccc(-c4nnc(SCc5nnn[nH]5)[nH]4)o3)ccc2c1` [Compound 3-11], the IC50 amounted to 1530 nM.

Take `c1cc2ccc(-c3ccc(-c4nnc(SCc5nnn[nH]5)[nH]4)o3)cc2[nH]1` [Compound 3-12]: the IC50 was found to be 1580 nM.

For `COc1cc(-c2ccc(-c3nnc(SCc4nnn[nH]4)[nH]3)o2)cc(C(F)(F)F)c1` [Compound 3-13], the IC50 worked out at 2160 nM.

On to `c1cnc2c(-c3ccc(-c4nnc(SCc5nnn[nH]5)[nH]4)o3)cccc2c1` [Compound 3-14], for which the IC50 was 2340 nM.

Regarding `CC(=O)c1cccc(-c2ccc(-c3nnc(SCc4nnn[nH]4)[nH]3)o2)c1` [Compound 3-15], the IC50 was found to be 2480 nM.

For `FC(F)(F)c1cccc(-c2ccc(-c3nnc(SCc4nnn[nH]4)[nH]3)o2)c1` [Compound 3-16], the IC50 was 2550 nM.

As to `COc1cc(F)cc(-c2ccc(-c3nnc(SCc4nnn[nH]4)[nH]3)o2)c1` [Compound 3-17], the IC50 is 2860 nM.

As for `Fc1cc(F)cc(-c2ccc(-c3nnc(SCc4nnn[nH]4)[nH]3)o2)c1` [Compound 3-18], the IC50 is 3310 nM.

With `FC(F)(F)c1cc(-c2ccc(-c3nnc(SCc4nnn[nH]4)[nH]3)o2)ccc1Cl` [Compound 3-19], the IC50 is 3570 nM.

As for `N#Cc1cccc(-c2ccc(-c3nnc(SCc4nnn[nH]4)[nH]3)o2)c1` [Compound 3-20], the IC50 was found to be 3620 nM.

On to `CS(=O)(=O)Nc1ccc(-c2ccc(-c3nnc(SCc4nnn[nH]4)[nH]3)o2)cc1` [Compound 3-21], for which the IC50 came to 3710 nM.

As to `CNS(=O)(=O)c1ccc(-c2ccc(-c3nnc(SCc4nnn[nH]4)[nH]3)o2)cc1` [Compound 3-22], the IC50 was determined as 3780 nM.

In the case of `CC(=O)Nc1cccc(-c2ccc(-c3nnc(SCc4nnn[nH]4)[nH]3)o2)c1` [Compound 3-23], the IC50 turned out to be 3810 nM.

With `Fc1cc(-c2ccc(-c3nnc(SCc4nnn[nH]4)[nH]3)o2)cc(F)c1F` [Compound 3-24], the IC50 came out at 3830 nM.

Consider `CS(=O)(=O)Nc1cccc(-c2ccc(-c3nnc(SCc4nnn[nH]4)[nH]3)o2)c1` [Compound 3-25], for which the IC50 came to 4660 nM.

As to `Fc1cccc(-c2ccc(-c3nnc(SCc4nnn[nH]4)[nH]3)o2)c1F` [Compound 3-26], the IC50 turned out to be 5520 nM.

Consider `Fc1cccc(-c2ccc(-c3nnc(SCc4nnn[nH]4)[nH]3)o2)c1` [Compound 3-27], for which the IC50 is 5630 nM.

With `c1ccc(-c2ccc(-c3nnc(SCc4nnn[nH]4)[nH]3)o2)cc1` [Compound 3-28], the IC50 is 6210 nM.

With `Fc1ccc(-c2ccc(-c3nnc(SCc4nnn[nH]4)[nH]3)o2)cc1F` [Compound 3-29], the IC50 came out at 6900 nM.

Take `CNS(=O)(=O)c1cccc(-c2ccc(-c3nnc(SCc4nnn[nH]4)[nH]3)o2)c1` [Compound 3-30]: the IC50 stood at 7160 nM.

Take `CS(=O)(=O)c1cccc(-c2ccc(-c3nnc(SCc4nnn[nH]4)[nH]3)o2)c1` [Compound 3-31]: the IC50 is 7450 nM.

As to `c1cncc(-c2ccc(-c3nnc(SCc4nnn[nH]4)[nH]3)o2)c1` [Compound 3-32], the IC50 is 8630 nM.

A word on the IC50: it is the point on the concentration scale where inhibition reaches its midpoint.
